{"source": "ChEMBL document CHEMBL1201862", "about": "“PubChem BioAssay data set” (2004)", "key": {"[1]": {"molecular_target": "T1, Leucine aminopeptidase (Plasmodium falciparum 3D7, UniProt Q8IL11)", "T1 sequence (Q8IL11 whole entry)": "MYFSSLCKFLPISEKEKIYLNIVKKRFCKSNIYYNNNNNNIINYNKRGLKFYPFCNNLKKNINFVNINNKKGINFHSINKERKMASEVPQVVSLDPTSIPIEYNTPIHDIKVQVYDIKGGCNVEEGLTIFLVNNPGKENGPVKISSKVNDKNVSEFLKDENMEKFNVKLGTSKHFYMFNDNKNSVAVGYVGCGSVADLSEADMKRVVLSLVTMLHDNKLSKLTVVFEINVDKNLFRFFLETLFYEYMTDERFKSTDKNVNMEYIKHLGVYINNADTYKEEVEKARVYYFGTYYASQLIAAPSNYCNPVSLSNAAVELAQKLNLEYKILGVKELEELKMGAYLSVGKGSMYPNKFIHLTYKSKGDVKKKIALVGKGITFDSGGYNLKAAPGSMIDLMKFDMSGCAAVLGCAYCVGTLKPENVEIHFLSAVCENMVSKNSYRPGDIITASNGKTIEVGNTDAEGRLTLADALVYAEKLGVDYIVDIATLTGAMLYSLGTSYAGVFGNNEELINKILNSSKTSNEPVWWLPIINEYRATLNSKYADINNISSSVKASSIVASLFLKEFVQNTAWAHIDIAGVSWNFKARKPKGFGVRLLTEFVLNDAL", "test": "P. falciparum M17LAP inhibitors, primary screen, biochemical, fluorogenic H-Leu-NHMec substrate, 1536-well (AID 1619)", "assay_type": "functional"}, "[2]": {"test": "cells", "assay_type": "functional, cell-based"}, "[3]": {"test": "cells", "assay_type": "functional, cell-based", "remark": "listed apart in the source"}, "[4]": {"molecular_target": "T2, Trace amine-associated receptor 1 (Homo sapiens, UniProt Q96RJ0)", "T2 sequence (Q96RJ0 whole entry)": "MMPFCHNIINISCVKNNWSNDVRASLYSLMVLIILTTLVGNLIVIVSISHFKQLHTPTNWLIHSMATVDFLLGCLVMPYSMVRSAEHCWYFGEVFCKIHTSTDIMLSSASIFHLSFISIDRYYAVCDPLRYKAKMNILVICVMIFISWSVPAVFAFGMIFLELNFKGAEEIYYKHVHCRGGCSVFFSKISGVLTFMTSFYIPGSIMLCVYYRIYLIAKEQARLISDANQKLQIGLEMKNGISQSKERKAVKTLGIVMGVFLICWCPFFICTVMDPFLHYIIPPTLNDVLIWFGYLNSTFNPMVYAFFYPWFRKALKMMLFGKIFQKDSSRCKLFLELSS", "test": "Counterscreen for agonists of the human trace amine associated receptor 1 (hTAAR1): Fluorescence-based cell-based high throughput dose response assay to identify hTAAR1 agonist that also desensitize TAAR1 receptor response.", "assay_type": "functional"}, "[5]": {"test": "cells", "assay_type": "functional, cell-based", "remark": "listed apart in the source"}, "[6]": {"test": "growth suppression of beta-catenin-knockout colon cells, dose response, cell-based, HCT116, human colon tumor (AID 1045);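 note: HCT116 colon tumor cells with beta catenin knocked out; cells exposed to compound for 60 hours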", "assay_type": "functional"}, "[7]": {"test": "Luminescence Cell-Based Dose Retest to Confirm Inhibitors of Cancer Stem Cells. [Related pubchem assays (depositor defined):AID2717, AID2721]", "assay_type": "functional", "details": "Homo sapiens"}, "[8]": {"molecular_target": "T2, Trace amine-associated receptor 1", "test": "Fluorescence-based cell-based high throughput dose response assay to identify agonists of the human trace amine associated receptor 1 (TAAR1).", "assay_type": "functional"}, "[9]": {"test": "cells", "assay_type": "functional, cell-based", "remark": "listed apart in the source"}, "[10]": {"test": "growth suppression of PTEN-null colon cells, dose response, cell-based, HCT116 PTEN knockout (AID 1047);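 note: HCT116 colon tumor cells with PTEN knocked out; cells exposed to compound for 60 hours before readout; potency for loss of cell viability measured by luminescence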", "assay_type": "functional"}, "[11]": {"molecular_target": "Genome polyprotein (dengue virus type 2, UniProt P29990)", "sequence (P29990 2492-3391 limits assumed)": "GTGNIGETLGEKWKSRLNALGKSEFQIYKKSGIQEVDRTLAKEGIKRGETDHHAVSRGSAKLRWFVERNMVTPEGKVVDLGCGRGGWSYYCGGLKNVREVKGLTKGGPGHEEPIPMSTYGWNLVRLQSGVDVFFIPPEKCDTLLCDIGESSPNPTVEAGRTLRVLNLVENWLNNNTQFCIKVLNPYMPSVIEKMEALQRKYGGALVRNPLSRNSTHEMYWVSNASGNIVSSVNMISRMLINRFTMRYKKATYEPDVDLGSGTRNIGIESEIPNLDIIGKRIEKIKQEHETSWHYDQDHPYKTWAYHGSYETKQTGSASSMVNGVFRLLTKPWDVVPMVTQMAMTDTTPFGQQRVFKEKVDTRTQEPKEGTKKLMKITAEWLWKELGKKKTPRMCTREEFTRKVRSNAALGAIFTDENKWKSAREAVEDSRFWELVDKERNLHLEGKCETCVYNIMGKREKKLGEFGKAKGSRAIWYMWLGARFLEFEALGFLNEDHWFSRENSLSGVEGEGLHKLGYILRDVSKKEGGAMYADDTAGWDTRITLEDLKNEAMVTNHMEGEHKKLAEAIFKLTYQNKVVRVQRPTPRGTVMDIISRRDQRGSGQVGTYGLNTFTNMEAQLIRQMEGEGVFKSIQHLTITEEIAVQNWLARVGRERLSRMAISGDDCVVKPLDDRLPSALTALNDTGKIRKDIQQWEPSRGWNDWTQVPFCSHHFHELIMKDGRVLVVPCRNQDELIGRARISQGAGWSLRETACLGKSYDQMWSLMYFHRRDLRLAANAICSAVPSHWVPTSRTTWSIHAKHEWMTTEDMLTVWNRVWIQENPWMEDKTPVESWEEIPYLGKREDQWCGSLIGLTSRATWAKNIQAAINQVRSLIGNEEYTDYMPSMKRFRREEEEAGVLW", "test": "Dengue-2 NS5 methyltransferase inhibitors, primary screen, biochemical, confirmation dose response (AID 588689)", "assay_type": "functional"}, "[12]": {"molecular_target": "T3, Protein RecA (Mycobacterium tuberculosis, UniProt P9WHJ3)", "T3 sequence (P9WHJ3 whole entry)": "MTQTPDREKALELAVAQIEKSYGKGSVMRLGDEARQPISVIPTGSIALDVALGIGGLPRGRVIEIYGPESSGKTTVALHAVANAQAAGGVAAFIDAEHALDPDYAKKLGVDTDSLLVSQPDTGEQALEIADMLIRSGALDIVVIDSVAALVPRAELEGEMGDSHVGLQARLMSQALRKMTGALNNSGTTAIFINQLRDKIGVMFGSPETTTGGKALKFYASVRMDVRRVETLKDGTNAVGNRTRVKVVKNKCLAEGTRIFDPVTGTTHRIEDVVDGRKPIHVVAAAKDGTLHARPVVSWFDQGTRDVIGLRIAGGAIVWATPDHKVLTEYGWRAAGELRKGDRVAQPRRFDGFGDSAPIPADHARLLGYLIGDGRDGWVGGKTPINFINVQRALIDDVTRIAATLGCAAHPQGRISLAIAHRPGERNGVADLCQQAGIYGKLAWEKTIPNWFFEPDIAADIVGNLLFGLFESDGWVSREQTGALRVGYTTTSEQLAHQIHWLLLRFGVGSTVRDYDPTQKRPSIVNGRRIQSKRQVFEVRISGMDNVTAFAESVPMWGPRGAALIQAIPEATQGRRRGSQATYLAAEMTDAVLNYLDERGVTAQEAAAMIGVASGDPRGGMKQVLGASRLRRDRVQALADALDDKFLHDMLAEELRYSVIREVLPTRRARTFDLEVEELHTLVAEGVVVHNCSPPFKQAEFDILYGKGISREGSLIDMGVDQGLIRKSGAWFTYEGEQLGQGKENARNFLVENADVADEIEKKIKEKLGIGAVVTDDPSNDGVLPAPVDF", "test": "Fluorescence Cell-Free Homogeneous Dose Retest to Identify Inhibitors of RecA-Intein Splicing Activity. [Related pubchem assays (depositor defined):AID2097, AID2223, AID489010, AID492950]", "assay_type": "functional"}, "[13]": {"molecular_target": "T4, Replicative DNA helicase DnaB (Mycobacterium tuberculosis, UniProt P9WMR3)", "T4 sequence (P9WMR3 whole entry)": "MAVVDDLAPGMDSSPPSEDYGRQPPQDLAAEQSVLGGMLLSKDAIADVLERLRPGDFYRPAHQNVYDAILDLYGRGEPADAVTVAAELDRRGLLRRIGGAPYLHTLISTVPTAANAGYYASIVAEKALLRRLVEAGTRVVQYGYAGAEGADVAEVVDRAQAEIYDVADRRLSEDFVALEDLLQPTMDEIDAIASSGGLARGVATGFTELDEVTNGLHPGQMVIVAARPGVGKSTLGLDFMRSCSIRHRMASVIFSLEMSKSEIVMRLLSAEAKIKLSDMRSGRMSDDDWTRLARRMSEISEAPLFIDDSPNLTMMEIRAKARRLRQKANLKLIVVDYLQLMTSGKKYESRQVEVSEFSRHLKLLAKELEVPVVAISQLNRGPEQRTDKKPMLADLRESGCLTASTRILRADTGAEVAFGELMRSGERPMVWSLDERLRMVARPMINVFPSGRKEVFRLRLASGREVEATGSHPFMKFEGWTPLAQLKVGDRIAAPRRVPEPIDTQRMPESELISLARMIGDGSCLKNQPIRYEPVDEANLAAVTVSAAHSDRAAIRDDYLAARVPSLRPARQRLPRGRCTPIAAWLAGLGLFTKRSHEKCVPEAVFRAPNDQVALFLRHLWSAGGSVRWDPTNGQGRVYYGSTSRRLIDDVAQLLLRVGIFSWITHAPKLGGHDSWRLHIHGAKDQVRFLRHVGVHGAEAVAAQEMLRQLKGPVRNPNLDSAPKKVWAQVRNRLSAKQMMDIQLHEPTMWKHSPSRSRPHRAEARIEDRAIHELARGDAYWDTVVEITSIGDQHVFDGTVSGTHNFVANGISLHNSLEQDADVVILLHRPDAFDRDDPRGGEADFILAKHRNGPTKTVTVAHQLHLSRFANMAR", "test": "DnaB intein splicing inhibitors, dose response, biochemical, cell-free fluorescence (AID 449749)", "assay_type": "functional"}, "[14]": {"molecular_target": "T5, Mannose-6-phosphate isomerase (Homo sapiens, UniProt P34949)", "T5 sequence (P34949 whole entry)": "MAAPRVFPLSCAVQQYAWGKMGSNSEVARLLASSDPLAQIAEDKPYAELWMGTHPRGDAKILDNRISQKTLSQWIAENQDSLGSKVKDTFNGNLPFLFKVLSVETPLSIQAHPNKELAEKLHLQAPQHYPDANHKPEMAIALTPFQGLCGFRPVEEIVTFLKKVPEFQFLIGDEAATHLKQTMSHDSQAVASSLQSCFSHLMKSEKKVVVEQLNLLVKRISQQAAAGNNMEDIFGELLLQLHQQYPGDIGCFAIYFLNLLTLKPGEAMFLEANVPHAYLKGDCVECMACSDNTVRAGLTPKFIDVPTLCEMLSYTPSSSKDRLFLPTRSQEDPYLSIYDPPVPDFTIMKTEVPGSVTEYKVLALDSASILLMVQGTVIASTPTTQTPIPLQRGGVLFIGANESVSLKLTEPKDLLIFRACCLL", "test": "human PMI inhibitors, high substrate, primary screen, biochemical, fluorescence intensity, high mannose 6-phosphate (AID 1220)"}}, "note": "Calls of active or inactive are those of the source.", "data": [{"smiles": "CC(C)NC(=O)c1cc(C(=O)c2cc(Cl)ccc2O)coc1=N", "values": [{"measurement": "IC50", "setting": "[1]", "result": "2.15 µM (active)"}]}, {"smiles": "CCNC(=O)NC(=O)C(C)Sc1ccc2c(c1)OCCO2", "note": "(centres undefined)", "values": [{"measurement": "IC50", "setting": "[1]", "result": "7.93 µM (active)"}]}, {"smiles": "COc1ccc2cc3cc(C(=O)N4CCN(c5ccccn5)CC4)oc3nc2c1", "values": [{"measurement": "EC50", "setting": "[2]", "result": "> 350 µM (not active)"}, {"measurement": "EC50", "setting": "[3]", "result": "> 350 µM (not active)"}]}, {"smiles": "Cc1cccc(-c2cc3nc(C)cc(N4CC(C)CC(C)C4)n3n2)c1", "note": "(centres undefined)", "values": [{"measurement": "IC50", "setting": "[4]", "result": "> 29.9 µM (inactive)"}, {"measurement": "IC50", "setting": "[5]", "result": "> 29.9 µM (inactive)"}, {"measurement": "EC50", "setting": "[6]", "result": "43.9 µM (active)"}, {"measurement": "AC50", "setting": "[7]", "result": "5.01 µM (active)"}, {"measurement": "EC50", "setting": "[8]", "result": "7.1 µM (active)"}, {"measurement": "EC50", "setting": "[9]", "result": "> 29.9 µM (inactive)"}, {"measurement": "EC50", "setting": "[10]", "result": "27.8 µM (active)"}]}, {"smiles": "O=C(O)CC1S/C(=N/N=C/c2ccc(-c3ccccc3[N+](=O)[O-])o2)NC1=O", "note": "(centres undefined)", "values": [{"measurement": "IC50", "setting": "[11]", "result": "89 µM (active)"}, {"measurement": "EC50", "setting": "[12]", "result": "4.31 µM (active)"}, {"measurement": "AC50", "setting": "[13]", "result": "12.1 µM (active)"}, {"measurement": "IC50", "setting": "[14]", "result": "> 50 µM (not active)"}]}, {"smiles": "O=C(O)c1ccc(COc2ccc3ccccc3c2/C=C2/NC(=O)N(c3ccccc3)C2=O)cc1", "values": [{"measurement": "IC50", "setting": "[1]", "result": "24.6 µM (active)"}]}, {"smiles": "CCOc1ccc(NC(=O)C2CCN(S(=O)(=O)c3ccc4c(c3)N(C(C)=O)CCO4)CC2)cc1", "values": [{"measurement": "EC50", "setting": "[2]", "result": "> 350 µM (not active)"}, {"measurement": "EC50", "setting": "[3]", "result": "> 350 µM (not active)"}]}, {"smiles": "COC(=O)C1=C(C(=O)OC)SC(=C2C(=S)C(C)(C)N(C(=O)C(C)C)c3ccccc32)S1", "values": [{"measurement": "IC50", "setting": "[14]", "result": "7.38 µM (active)"}]}]}
